Data from US8729035B2, “Synthesis of novel neamine derivatives and use thereof as antibacterial agents” (Universite Joseph Fourier, priority 2008, dated 2014).
Values after ≈ are worked out from the molar mass of the structure shown. Like-named read-outs stand apart in the source and are kept apart here.

Assays:
Assay in all cases: MIC determination on r-methylase-expressing resistant Gram (-) bacteria
[1] = test system: C. amalonaticus 06AB0010 arm; type: cell-based; details: Citrobacter amalonaticus, 06AB0010ARM
Description: (§1) The molecules were dissolved in water or DMSO at a concentration of 5 or 10 mg/mL, then the solutions were diluted if necessary. A volume of 200 μL of each of them was put onto a 96-well plate.
(§2) C—Determination of the MIC
(§3) The molecules with a screening score of 10 or 100 were selected to determine their MICs relative to the strains tested.
(§4) As for the validation of the strains, the solution of the molecule selected was diluted by a factor of 2, times 2, using the Biomek2000 robot in 96-well plates to cover a wide range of concentrations. To each of these wells was added a volume of inoculum made from the previous days preculture diluted to 1/100th strength. Each well was repeated. Again, controls of non-contamination, growth and resistance/sensitivity to a reference antibiotic were included in the experiment. The plate was incubated at 37° C., and the kinetics of the bacterial proliferation were monitored over 24 hours, by measuring the OD620 nm at 0, 1, 4, 7, and 24 hours.
(§5) The MIC was the lowest concentration found to be capable of inhibiting bacterial proliferation after 24 hours incubation. Having no previous idea of this value it was possible that it might not fall within the range of dilutions chosen. If this was the case the operation had to be repeated adjusting this range.
(§6) Similar measurements were made on various Gram (−) bacteria. The strains tested were provided by R. Vanhoof (E. coli PAZ505H8101 and L58058.1, P. aeruginosa ATCC 27853, Psa.F03, A. lwoffi A1.88-483), Y. Glupczynski (C. amalonaticus Ca06AB0010), J. C. Pechere (P. aeruginosa PA02, PA03), P. Plésiat (P. aeruginosa PA01, PA21, PA22), H. Schweizer (P. aeruginosa PA405, PA406).

[2] = test system: E. coli 06AB003 arm; type: cell-based; details: Escherichia coli, 06AB003ARM, 24 h
Description: as §1, §2, §3, §4, §5, §6

[3] = test system: E. aerogenes 06AB008 arm; type: cell-based, Enterobacter aerogenes; details: Klebsiella aerogenes, 06AB008ARM, 24 h
Description: as §1, §2, §3, §4, §5, §6

Row | Structure (SMILES) | MIC ([1]; 24 h) [µg/mL] | MIC [2] [µg/mL] | MIC [3] [µg/mL] | MIC ([1]; resistant bacteria expressing an RNA methylation enzyme (r-methylase), one value stated for the three strains together, 24 hours incubation, read-out: MIC) [µg/mL]
1 | NCC[C@H](O)C(=O)N[C@@H]1C[C@H](N)[C@@H](O[C@H]2O[C@H](CN)[C@@H](O)[C@H](O)[C@H]2O)[C@H](O)[C@H]1O[C@H]1O[C@H](CO)[C@@H](O)[C@H](N)[C@H]1O [amikacin] | > 128 | > 128 | > 128 | –
2 | NC[C@H]1O[C@H](O[C@H]2[C@H](O)[C@@H](O[C@H]3O[C@H](CO)[C@@H](O)[C@H](N)[C@H]3O)[C@H](N)C[C@@H]2N)[C@H](N)C[C@@H]1O [tobramycin] | > 128 | > 128 | > 128 | –
3 | NCC1OC(OC2C(N)CC(N)C(OCc3cccc4ccccc34)C2O)C(N)C(OCc2cccc3ccccc23)C1O (stereo not drawn) [3′,6-di1NM, 3′,6-O,O′-di(naphthyl-1-methylene) neamine] | – | 4 to 16 (≈ 6.64 to 26.5 µM) | 4 to 16 (≈ 6.64 to 26.5 µM) | 4 to 16 (≈ 6.64 to 26.5 µM)
